Experimental findings from ChEMBL document CHEMBL5465560, “Selectivity Literature for EUbOPEN Chemogenomic Library” (2024) are described below.

Each structure is given as a SMILES string.

Test [1] has as its target T1, Serine/threonine-protein kinase 36 (Homo sapiens) (UniProt Q9NRP7).
T1 sequence (whole entry): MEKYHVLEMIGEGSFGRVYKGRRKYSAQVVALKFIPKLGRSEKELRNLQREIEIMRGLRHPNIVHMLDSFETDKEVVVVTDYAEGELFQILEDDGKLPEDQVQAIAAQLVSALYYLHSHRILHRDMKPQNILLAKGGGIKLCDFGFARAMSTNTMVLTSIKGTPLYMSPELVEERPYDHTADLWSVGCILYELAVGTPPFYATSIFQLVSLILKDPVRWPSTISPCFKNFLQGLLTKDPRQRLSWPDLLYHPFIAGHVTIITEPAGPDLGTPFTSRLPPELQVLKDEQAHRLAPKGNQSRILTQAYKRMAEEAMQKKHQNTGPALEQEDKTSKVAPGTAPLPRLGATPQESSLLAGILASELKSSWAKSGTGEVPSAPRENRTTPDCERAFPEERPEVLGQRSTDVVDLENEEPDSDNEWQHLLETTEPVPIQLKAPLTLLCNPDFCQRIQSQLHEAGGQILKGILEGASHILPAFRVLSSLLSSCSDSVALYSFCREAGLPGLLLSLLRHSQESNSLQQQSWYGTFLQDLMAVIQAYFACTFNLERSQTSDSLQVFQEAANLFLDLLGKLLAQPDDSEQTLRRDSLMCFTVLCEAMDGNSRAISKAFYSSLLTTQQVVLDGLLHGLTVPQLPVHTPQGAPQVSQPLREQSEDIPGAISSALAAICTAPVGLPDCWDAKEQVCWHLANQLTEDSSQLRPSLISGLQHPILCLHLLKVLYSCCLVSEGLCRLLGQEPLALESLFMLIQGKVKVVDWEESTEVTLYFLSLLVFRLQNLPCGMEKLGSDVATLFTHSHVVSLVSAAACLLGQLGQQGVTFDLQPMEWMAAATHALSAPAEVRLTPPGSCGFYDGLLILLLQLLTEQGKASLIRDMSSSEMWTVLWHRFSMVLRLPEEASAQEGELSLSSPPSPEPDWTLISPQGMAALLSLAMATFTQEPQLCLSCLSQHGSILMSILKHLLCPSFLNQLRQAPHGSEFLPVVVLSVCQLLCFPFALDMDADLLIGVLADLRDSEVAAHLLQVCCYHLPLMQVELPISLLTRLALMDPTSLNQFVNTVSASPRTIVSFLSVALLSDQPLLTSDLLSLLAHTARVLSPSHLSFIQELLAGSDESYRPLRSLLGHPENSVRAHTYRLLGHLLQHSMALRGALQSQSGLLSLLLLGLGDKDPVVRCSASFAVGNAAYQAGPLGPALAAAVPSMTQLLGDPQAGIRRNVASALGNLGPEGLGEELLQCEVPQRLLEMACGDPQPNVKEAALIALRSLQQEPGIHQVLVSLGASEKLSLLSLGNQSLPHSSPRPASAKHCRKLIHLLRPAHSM
Kind of test: Selectivity interaction (KinomeScan (DiscoverX)) EUB0000666a STK36. The conditions noted are these: at 10 µM.

In test [2] the target is Casein kinase I isoform gamma-2 (Homo sapiens) (UniProt P78368). Kind of test: Selectivity interaction (ActivX KiNativ screen (kinase selectivity in THP-1 cell lysates)) EUB0000639a CSNK1G2. The class given is subcellular. The conditions noted are these: lysate.
Casein kinase I isoform gamma-2 (Homo sapiens), sequence (P78368 whole entry, looked up, canonical isoform): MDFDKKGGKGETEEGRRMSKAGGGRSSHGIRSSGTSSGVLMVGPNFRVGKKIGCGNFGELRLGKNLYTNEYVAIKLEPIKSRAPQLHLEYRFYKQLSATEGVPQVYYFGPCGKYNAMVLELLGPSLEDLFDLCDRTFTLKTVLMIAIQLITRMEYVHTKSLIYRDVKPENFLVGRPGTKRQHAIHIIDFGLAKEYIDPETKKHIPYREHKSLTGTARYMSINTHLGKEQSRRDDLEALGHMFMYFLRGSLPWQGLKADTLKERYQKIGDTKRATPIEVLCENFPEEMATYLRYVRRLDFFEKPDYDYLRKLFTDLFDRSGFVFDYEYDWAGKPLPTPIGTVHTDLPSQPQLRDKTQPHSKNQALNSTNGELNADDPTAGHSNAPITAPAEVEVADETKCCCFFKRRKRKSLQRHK
In test [3] the target is T2, Tyrosine-protein kinase Mer (Homo sapiens) (UniProt Q12866).
T2 sequence (whole entry): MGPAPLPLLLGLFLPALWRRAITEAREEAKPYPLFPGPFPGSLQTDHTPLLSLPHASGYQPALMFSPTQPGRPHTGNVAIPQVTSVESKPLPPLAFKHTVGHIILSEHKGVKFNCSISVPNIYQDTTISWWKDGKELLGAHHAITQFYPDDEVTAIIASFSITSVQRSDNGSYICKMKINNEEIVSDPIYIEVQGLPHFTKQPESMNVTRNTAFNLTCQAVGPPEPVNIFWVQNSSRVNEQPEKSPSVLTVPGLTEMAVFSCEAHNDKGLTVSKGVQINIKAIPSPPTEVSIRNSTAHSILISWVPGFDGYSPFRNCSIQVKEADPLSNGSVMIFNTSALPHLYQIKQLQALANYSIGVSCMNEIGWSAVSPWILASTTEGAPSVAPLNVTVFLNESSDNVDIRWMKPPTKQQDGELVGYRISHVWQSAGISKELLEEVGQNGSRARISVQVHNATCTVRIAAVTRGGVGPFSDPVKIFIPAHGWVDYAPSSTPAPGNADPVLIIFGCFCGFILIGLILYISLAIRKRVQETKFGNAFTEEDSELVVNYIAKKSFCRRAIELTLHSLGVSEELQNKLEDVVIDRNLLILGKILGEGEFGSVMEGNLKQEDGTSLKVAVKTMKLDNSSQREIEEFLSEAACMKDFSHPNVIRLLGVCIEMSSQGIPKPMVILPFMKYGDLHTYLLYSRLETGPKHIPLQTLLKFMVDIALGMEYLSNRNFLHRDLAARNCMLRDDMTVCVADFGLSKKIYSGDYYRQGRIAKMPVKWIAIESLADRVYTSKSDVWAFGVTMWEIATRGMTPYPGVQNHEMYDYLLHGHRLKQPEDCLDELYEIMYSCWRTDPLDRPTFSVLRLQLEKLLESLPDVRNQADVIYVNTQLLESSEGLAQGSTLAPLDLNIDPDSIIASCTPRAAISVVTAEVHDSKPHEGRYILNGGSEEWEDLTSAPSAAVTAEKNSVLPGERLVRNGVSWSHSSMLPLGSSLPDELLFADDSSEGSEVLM
Nature of the test: Selectivity interaction (KinomeScan (DiscoverX)) EUB0000229b MERTK. The note with it: at 10 µM.

For test [4], the target named is Casein kinase II subunit alpha (Homo sapiens, UniProt P68400). Kind of test: Selectivity interaction (Kinase panel (KiNativ target engagement assay in Jurkat cells)) EUB0001635a CSNK2A1. The class given is cell-based. The conditions noted are these: Selectivity number of off-targets 0.0, Selectivity number of targets 233.0, Source Knowledge https://www.sciencedirect.com/science/article/pii/S2451945619300674?via%3Dihub, at 1 µM.
Casein kinase II subunit alpha, sequence (P68400 whole entry, looked up): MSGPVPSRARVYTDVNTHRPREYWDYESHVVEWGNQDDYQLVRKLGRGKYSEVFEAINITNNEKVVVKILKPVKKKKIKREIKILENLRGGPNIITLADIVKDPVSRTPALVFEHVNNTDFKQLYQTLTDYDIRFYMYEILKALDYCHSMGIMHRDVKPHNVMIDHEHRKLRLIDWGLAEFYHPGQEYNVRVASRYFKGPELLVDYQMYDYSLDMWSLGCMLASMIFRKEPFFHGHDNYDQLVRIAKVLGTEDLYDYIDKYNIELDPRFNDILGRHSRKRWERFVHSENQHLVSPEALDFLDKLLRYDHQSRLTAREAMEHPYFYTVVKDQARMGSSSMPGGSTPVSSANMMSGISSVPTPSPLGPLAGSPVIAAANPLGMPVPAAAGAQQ

`O=C(NOC[C@H](O)CO)c1ccc(F)c(F)c1Nc1ccc(I)cc1F` came in with a % of control in test [1] of 74%.
On to `CC[C@@H]1[C@H](F)C(=O)N[C@@H]1COc1nccc2cc(C(N)=O)c(OC)cc12` [ZIMLOVISERTIB], for which the % of inhibition in test [2] (at 0.01 µM) amounted to 4.3%; in test [2] (at 0.04 µM), 27.3%; in test [2] (at 0.2 µM), 67%; in test [2] (at 1 µM), 91%; in test [2] (at 5 µM), 96.9%.
Take `COc1cc(N(C)c2ccnc3ccc(C(F)(F)F)cc23)cc(OC)c1OC`: the % binding in test [3] was found to be 100%.
For `C=CC(=O)Nc1ccc(C(=O)Nc2[nH]nc3c2CN(C(=O)N[C@H](CN(C)C)c2ccccc2)C3(C)C)cc1`, the % of engagement in test [4] was -4.8%.
